Source: patent publication US20240209027A1, “PEPTIDE AND PEPTIDE-CONTAINING COMPOSITION” (PeptiAID Inc.,, priority 2021, published 2024)
Starred links: 1 amine or outer side, 2 acyl side, 3 side chain; linkers in the order of their positions; H or OH if unused. Positions of bridges follow the written chain, without caps; N, C: chain ends. Non-standard residues stand in square brackets, D forms with d. Residues, ends and D or L forms follow the SMILES beside them. ξ: configuration not given here. *: point of attachment. X5 = O=C(O)CCCCCCCCCCCCC(=O)N[C@@H](CCC(=O)N[C@@H](CCCCN*)C(=O)O)C(=O)O; X4 = O=C(O)CCCCCCCCCCC(=O)N[C@@H](CCC(=O)N[C@@H](CCCCN*)C(=O)O)C(=O)O; X6 = O=C(O)CCCCCCCCC(=O)N[C@@H](CCC(=O)N[C@@H](CCCCN*)C(=O)O)C(=O)O; Ala(piperidin-4-yl) = O=C([C@H](CC1CCN([*:3])CC1)N[*:1])[*:2]; Ala(indan-2-yl) = N[C@@H](CC1Cc2ccccc2C1)C(=O)O; Phe(4-COOH) = N[C@@H](Cc1ccc(C(=O)O)cc1)C(=O)O; Phe(4-F) = N[C@@H](Cc1ccc(F)cc1)C(=O)O; C12 diacid = O=C(O)CCCCCCCCCCC(=O)*; 3Pal = N[C@@H](Cc1cccnc1)C(=O)O; NMeE = CN[C@@H](CCC(=O)O)C(=O)O; dNMeE = CN[C@H](CCC(=O)O)C(=O)O; Cha = N[C@@H](CC1CCCCC1)C(=O)O; Cit = NC(=O)NCCC[C@H](N)C(=O)O; NMeNle = CCCC[C@H](NC)C(=O)O; ξαMeS = CC(N)(CO)C(=O)O; PEG2 = NCCOCCOCCC(=O)O; Aib = CC(C)(N)C(=O)O; Sar = CNCC(=O)O

Test system: SARS-CoV-2-derived S protein, Delta strain
Assay type: cell-based
Conditions: Table 12

Compound	IC50	Imax: % (at 500 nM)
CCCC[C@H]1C(=O)NC(C)(C)C(=O)N[C@@H](CC2Cc3ccccc3C2)C(=O)N[C@@H](Cc2ccc(F)cc2)C(=O)N[C@H](CC(=O)O)C(=O)N[C@@H](Cc2ccc(O)cc2)C(=O)N[C@@H](Cc2ccc(O)cc2)C(=O)N[C@@H](CCCNC(N)=O)C(=O)N[C@H](CCCCN)C(=O)N[C@@H](CC2CCCCC2)C(=O)N[C@H](C(=O)N[C@H](CCC(=O)O)C(N)=O)CSCC(=O)N[C@@H](Cc2cccnc2)C(=O)N1C [Peptide 5555_p178] ({CH2CO}-[3Pal][NMeNle][Aib][Ala(indan-2-yl)][Phe(4-F)][dD]YY[Cit][dK][Cha]C[dE]-NH2; thioether N-12)	1.9 nM	100%
CCCC[C@H]1C(=O)NC(C)(C)C(=O)N[C@@H](CC2CCCCC2)C(=O)N[C@@H](Cc2ccc(F)cc2)C(=O)NC(C)(CO)C(=O)N[C@@H](Cc2ccc(O)cc2)C(=O)N[C@@H](Cc2ccc(O)cc2)C(=O)N[C@@H](Cc2ccc(C(=O)O)cc2)C(=O)N[C@@H](CC2CCNCC2)C(=O)N[C@@H](CC2CCCCC2)C(=O)N[C@H](C(=O)N[C@H](CCC(=O)O)C(N)=O)CSCC(=O)N(C)[C@@H](CCC(=O)O)C(=O)N1C (stereo partly shown) [Peptide 5555_p203] ({CH2CO}-[NMeE][NMeNle][Aib][Cha][Phe(4-F)][ξαMeS]YY[Phe(4-COOH)][Ala(piperidin-4-yl)][Cha]C[dE]-NH2; thioether N-12)	0.5 nM	101%
CCCC[C@H]1C(=O)NC(C)(C)C(=O)N[C@@H](CC2CCCCC2)C(=O)N[C@@H](Cc2ccc(F)cc2)C(=O)N[C@H](CC(=O)O)C(=O)N[C@@H](Cc2ccc(O)cc2)C(=O)N[C@@H](Cc2ccc(O)cc2)C(=O)N[C@@H](CCCNC(N)=O)C(=O)N[C@H](CCCCN)C(=O)N[C@@H](CC2CCCCC2)C(=O)N[C@H](C(=O)N[C@H](CCC(=O)O)C(=O)NCCCC[C@H](NC(=O)CC[C@H](NC(=O)CCCCCCCCCCCCC(=O)O)C(=O)O)C(=O)O)CSCC(=O)N(C)[C@@H](CCC(=O)O)C(=O)N1C [Peptide 5555_p235] ({CH2CO}-[NMeE][NMeNle][Aib][Cha][Phe(4-F)][dD]YY[Cit][dK][Cha]C[dE]-X5; thioether N-12)	7 nM	99%
CCCC[C@H]1C(=O)NC(C)(C)C(=O)N[C@@H](CC2CCCCC2)C(=O)N[C@@H](Cc2ccc(F)cc2)C(=O)N[C@H](CC(=O)O)C(=O)N[C@@H](Cc2ccc(O)cc2)C(=O)N[C@@H](Cc2ccc(O)cc2)C(=O)N[C@@H](CCCNC(N)=O)C(=O)N[C@H](CCCCN)C(=O)N[C@@H](CC2CCCCC2)C(=O)N[C@H](C(=O)N[C@H](CCC(=O)O)C(N)=O)CSCC(=O)N[C@@H](Cc2cccnc2)C(=O)N1C [Peptide 5555_p177] ({CH2CO}-[3Pal][NMeNle][Aib][Cha][Phe(4-F)][dD]YY[Cit][dK][Cha]C[dE]-NH2; thioether N-12)	2.8 nM	97%
CCCC[C@H]1C(=O)NC(C)(C)C(=O)N[C@@H](CC2CCCCC2)C(=O)N[C@@H](Cc2ccc(F)cc2)C(=O)NC(C)(CO)C(=O)N[C@@H](Cc2ccc(O)cc2)C(=O)N[C@@H](Cc2ccc(O)cc2)C(=O)N[C@@H](CCCNC(N)=O)C(=O)N[C@H](CCCCN)C(=O)N[C@@H](CC2CCCCC2)C(=O)N[C@H](C(=O)N[C@H](CCC(=O)O)C(N)=O)CSCC(=O)N(C)[C@@H](CCC(=O)O)C(=O)N1C (stereo partly shown) [Peptide 5555_p218] ({CH2CO}-[NMeE][NMeNle][Aib][Cha][Phe(4-F)][ξαMeS]YY[Cit][dK][Cha]C[dE]-NH2; thioether N-12)	0.3 nM	101%
CCCC[C@H]1C(=O)NC(C)(C)C(=O)N[C@@H](CC2Cc3ccccc3C2)C(=O)N[C@@H](Cc2ccc(F)cc2)C(=O)N(C)CC(=O)N[C@@H](Cc2ccc(O)cc2)C(=O)N[C@@H](Cc2ccc(O)cc2)C(=O)N[C@@H](CCCNC(N)=O)C(=O)N[C@H](CCCCN)C(=O)N[C@@H](CC2CCCCC2)C(=O)N[C@H](C(=O)N[C@H](CCC(=O)O)C(N)=O)CSCC(=O)N(C)[C@@H](CCC(=O)O)C(=O)N1C [Peptide 5555_p213] ({CH2CO}-[NMeE][NMeNle][Aib][Ala(indan-2-yl)][Phe(4-F)][Sar]YY[Cit][dK][Cha]C[dE]-NH2; thioether N-12)	0.6 nM	101%
CCCC[C@H]1C(=O)NC(C)(C)C(=O)N[C@@H](CC2CCCCC2)C(=O)N[C@@H](Cc2ccc(F)cc2)C(=O)N[C@H](CC(=O)O)C(=O)N[C@@H](Cc2ccc(O)cc2)C(=O)N[C@@H](Cc2ccc(O)cc2)C(=O)N[C@@H](CCCNC(N)=O)C(=O)N[C@H](CCCCN)C(=O)N[C@@H](CC2CCCCC2)C(=O)N[C@H](C(=O)N[C@H](CCC(=O)O)C(=O)NCCCC[C@H](NC(=O)CC[C@H](NC(=O)CCCCCCCCC(=O)O)C(=O)O)C(=O)O)CSCC(=O)N(C)[C@@H](CCC(=O)O)C(=O)N1C [Peptide 5555_p233] ({CH2CO}-[NMeE][NMeNle][Aib][Cha][Phe(4-F)][dD]YY[Cit][dK][Cha]C[dE]-X6; thioether N-12)	4.2 nM	99%
CCCC[C@H]1C(=O)NC(C)(C)C(=O)N[C@@H](CC2CCCCC2)C(=O)N[C@@H](Cc2ccc(F)cc2)C(=O)N[C@H](CC(=O)O)C(=O)N[C@@H](Cc2ccc(O)cc2)C(=O)N[C@@H](Cc2ccc(O)cc2)C(=O)N[C@@H](CCCNC(N)=O)C(=O)N[C@H](CCCCN)C(=O)N[C@@H](CC2CCCCC2)C(=O)N[C@H](C(=O)N[C@H](CCC(=O)O)C(=O)NCCCC[C@H](NC(=O)CC[C@H](NC(=O)CCCCCCCCCCC(=O)O)C(=O)O)C(=O)O)CSCC(=O)N(C)[C@@H](CCC(=O)O)C(=O)N1C [Peptide 5555_p234] ({CH2CO}-[NMeE][NMeNle][Aib][Cha][Phe(4-F)][dD]YY[Cit][dK][Cha]C[dE]-X4; thioether N-12)	5.9 nM	99%
CCCC[C@H]1C(=O)NC(C)(C)C(=O)N[C@@H](CC2CCCCC2)C(=O)N[C@@H](Cc2ccc(F)cc2)C(=O)N[C@H](CC(=O)O)C(=O)N[C@@H](Cc2ccc(O)cc2)C(=O)N[C@@H](Cc2ccc(O)cc2)C(=O)N[C@@H](CCCNC(N)=O)C(=O)N[C@H](CCCCN)C(=O)N[C@@H](CC2CCCCC2)C(=O)N[C@H](C(=O)N[C@H](CCC(=O)O)C(=O)NCCOCCOCCC(=O)N[C@H](CCCCNC(=O)CCCCCCCCCCC(=O)O)C(N)=O)CSCC(=O)N(C)[C@@H](CCC(=O)O)C(=O)N1C [Peptide 5555_p227] ({CH2CO}-[NMeE][NMeNle][Aib][Cha][Phe(4-F)][dD]YY[Cit][dK][Cha]C[dE][PEG2][dK](C12 diacid)-NH2; thioether N-12)	1.9 nM	100%
CCCC[C@H]1C(=O)NC(C)(C)C(=O)N[C@@H](CC2Cc3ccccc3C2)C(=O)N[C@@H](Cc2ccc(F)cc2)C(=O)N2CCC[C@H]2C(=O)N[C@@H](Cc2ccc(O)cc2)C(=O)N[C@@H](Cc2ccc(O)cc2)C(=O)N[C@@H](CCCNC(N)=O)C(=O)N[C@H](CCCCN)C(=O)N[C@@H](CC2CCCCC2)C(=O)N[C@H](C(=O)N[C@H](CCC(=O)O)C(N)=O)CSCC(=O)N(C)[C@@H](CCC(=O)O)C(=O)N1C [Peptide 5555_p216] ({CH2CO}-[NMeE][NMeNle][Aib][Ala(indan-2-yl)][Phe(4-F)]PYY[Cit][dK][Cha]C[dE]-NH2; thioether N-12)	0.4 nM	102%
CCCC[C@H]1C(=O)NC(C)(C)C(=O)N[C@@H](CC2CCCCC2)C(=O)N[C@@H](Cc2ccc(F)cc2)C(=O)N[C@H](CC(=O)O)C(=O)N[C@@H](Cc2ccc(O)cc2)C(=O)N[C@@H](Cc2ccc(O)cc2)C(=O)N[C@@H](Cc2ccc(C(=O)O)cc2)C(=O)N[C@@H](CC2CCNCC2)C(=O)N[C@@H](CC2CCCCC2)C(=O)N[C@H](C(=O)N[C@H](CCC(=O)O)C(N)=O)CSCC(=O)N[C@@H](Cc2cccnc2)C(=O)N1C [Peptide 5555_p195] ({CH2CO}-[3Pal][NMeNle][Aib][Cha][Phe(4-F)][dD]YY[Phe(4-COOH)][Ala(piperidin-4-yl)][Cha]C[dE]-NH2; thioether N-12)	2.3 nM	101%
CCCC[C@H]1C(=O)NC(C)(C)C(=O)N[C@@H](CC2Cc3ccccc3C2)C(=O)N[C@@H](Cc2ccc(F)cc2)C(=O)NC(C)(CO)C(=O)N[C@@H](Cc2ccc(O)cc2)C(=O)N[C@@H](Cc2ccc(O)cc2)C(=O)N[C@@H](Cc2ccc(C(=O)O)cc2)C(=O)N[C@@H](CC2CCNCC2)C(=O)N[C@@H](CC2CCCCC2)C(=O)N[C@H](C(=O)N[C@H](CCC(=O)O)C(N)=O)CSCC(=O)N(C)[C@@H](CCC(=O)O)C(=O)N1C (stereo partly shown) [Peptide 5555_p197] ({CH2CO}-[NMeE][NMeNle][Aib][Ala(indan-2-yl)][Phe(4-F)][ξαMeS]YY[Phe(4-COOH)][Ala(piperidin-4-yl)][Cha]C[dE]-NH2; thioether N-12)	0.4 nM	101%
CCCC[C@H]1C(=O)NC(C)(C)C(=O)N[C@@H](CC2CCCCC2)C(=O)N[C@@H](Cc2ccc(F)cc2)C(=O)N2CCC[C@H]2C(=O)N[C@@H](Cc2ccc(O)cc2)C(=O)N[C@@H](Cc2ccc(O)cc2)C(=O)N[C@@H](CCCNC(N)=O)C(=O)N[C@H](CCCCN)C(=O)N[C@@H](CC2CCCCC2)C(=O)N[C@H](C(=O)N[C@H](CCC(=O)O)C(N)=O)CSCC(=O)N(C)[C@@H](CCC(=O)O)C(=O)N1C [Peptide 5555_p188] ({CH2CO}-[NMeE][NMeNle][Aib][Cha][Phe(4-F)]PYY[Cit][dK][Cha]C[dE]-NH2; thioether N-12)	0.4 nM	101%
CCCC[C@H]1C(=O)NC(C)(C)C(=O)N[C@@H](CC2CCCCC2)C(=O)N[C@@H](Cc2ccc(F)cc2)C(=O)N(C)[C@H](CCC(=O)O)C(=O)N[C@@H](Cc2ccc(O)cc2)C(=O)N[C@@H](Cc2ccc(O)cc2)C(=O)N[C@@H](Cc2ccc(C(=O)O)cc2)C(=O)N[C@@H](CC2CCNCC2)C(=O)N[C@@H](CC2CCCCC2)C(=O)N[C@H](C(=O)N[C@H](CCC(=O)O)C(N)=O)CSCC(=O)N[C@@H](Cc2cccnc2)C(=O)N1C [Peptide 5555_p192] ({CH2CO}-[3Pal][NMeNle][Aib][Cha][Phe(4-F)][dNMeE]YY[Phe(4-COOH)][Ala(piperidin-4-yl)][Cha]C[dE]-NH2; thioether N-12)	2.5 nM	102%
